Patent US6949574B2 (Bristol-Myers Squibb Company, priority 2002, dated 2005)

What follows are compounds tested against T1, human FAAH (Homo sapiens, UniProt O00519) (assay: FAAH activity in membrane homogenates of H4-FAAH cells, [3H]-anandamide hydrolysis). Details: not given.
T1 construct: expressed in transfected cells; host or cells: H4 cells (H4-FAAH, Geneticin-selected); crude membrane homogenates
T1 sequence (O00519 1-579): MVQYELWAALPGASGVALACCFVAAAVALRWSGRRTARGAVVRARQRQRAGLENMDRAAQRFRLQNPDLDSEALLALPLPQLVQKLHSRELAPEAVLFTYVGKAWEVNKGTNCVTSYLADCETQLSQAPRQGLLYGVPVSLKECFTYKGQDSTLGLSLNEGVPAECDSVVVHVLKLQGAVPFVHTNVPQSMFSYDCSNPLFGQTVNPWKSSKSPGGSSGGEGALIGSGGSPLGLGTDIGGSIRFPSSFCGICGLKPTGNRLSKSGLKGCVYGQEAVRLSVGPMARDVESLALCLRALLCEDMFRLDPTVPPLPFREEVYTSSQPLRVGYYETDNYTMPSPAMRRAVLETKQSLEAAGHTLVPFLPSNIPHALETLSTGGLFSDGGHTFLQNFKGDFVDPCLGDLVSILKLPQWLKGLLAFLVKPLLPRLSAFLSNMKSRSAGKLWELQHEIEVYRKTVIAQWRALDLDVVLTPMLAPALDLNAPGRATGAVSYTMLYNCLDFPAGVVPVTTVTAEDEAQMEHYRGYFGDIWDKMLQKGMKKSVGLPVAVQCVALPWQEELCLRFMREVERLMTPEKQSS
Assay type: biochemical
Experimental: Homogenates of crude membranes were prepared from H4 cells that express transfected human FAAH (H4-FAAH cells). Briefly, cells were grown in DMEM supplemented with 10% FBS and Geneticin at a final concentration of 500 μg/ml (Gibco BRL, Rockville, Md.). Confluent cultures of H4-FAAH cells were rinsed twice with phosphate-buffered saline [138 mM NaCl, 4.1 mM KCl, 5.1 mM Na2PO4, 1.5 mM KH2PO4 (pH 7.5), 37° C.] and incubated for 5 to 10 minutes at 4° C. in lysis buffer [1 mM sodium bicarbonate]. Cells were transferred from plates to polypropylene tubes (16×100 mm), homogenized and centrifuged at 32,000×g for 30 minutes. Pellets were resuspended by homogenization in lysis buffer and centrifuged at 32,000×g for 30 minutes. Pellets were resuspended in lysis buffer (15-20 μg protein/ml) then stored at −80° C. until needed. On the day of an experiment, membranes were diluted to 2.67 μg protein/ml in 125 mM Tris-Cl, pH 9.0.
Activity of FAAH was measured using a modification of the method described by Omeir et al., 1995 (Life Sci 56:1999, 1995). Membrane homogenates (240 ng protein) were incubated at room temperature for one hour with 1.67 nM anandamide [ethanolamine 1-^3H] (available from American Radiolabeled Chemical Inc., St Louis, Mo.) and 10 μM anandamide (available from Sigma/RBI, St. Louis, Mo.) in the absence and presence of inhibitors. The reaction was stopped by the addition of 1 volume of a solution of 1:1 methanol and dichloroethane. The mixture was shaken and then centrifuged at 1000×g for 15 minutes to separate the aqueous and organic phases. An aliquot of the aqueous phase, containing [^3H]-ethanolamine was withdrawn and counted by scintillation spectroscopy. Data were expressed as the percentage of [^3H]-ethanolamine formed versus vehicle, after subtraction of the background radioactivity determined in the presence of 10 μM arachidonyl trifluoromethyl ketone (ATFMK), an inhibitor of FAAH. IC50 values were determined using a four-parameter logistic equation for dose-response curves.

`CCCCOc1cccc(NC(=O)ON=C(C)C)c1` [Example 66, 2-Propanone, O-[[(3-butoxyphenyl)amino]carbonyl]oxime] was tested. Which IC50 did it give?
Its IC50 is over 500 nM.

Same assay, conditions: H4-FAAH cell membranes, 10 μM anandamide, room temperature, one hour; read-out: IC50

`O=C(Nc1ccc(OCCc2ccccc2)cc1)O/N=C/c1ccc(F)cc1` [Example 82, 4-Fluorobenzaldehyde, O-[[[4-(2-phenylethoxy)phenyl]amino]carbonyl]oxime] was tested. Which IC50 did it give?
Its IC50 is under 10 nM.

`O=C(Nc1ccc2oc3ccccc3c2c1)O/N=C/c1ccccc1` [Example 154, Benzaldehyde, O-[[(2-dibenzofuranyl)amino]carbonyl]oxime] was tested. Which IC50 did it give?
The IC50 was 10 to 100 nM.

Which IC50 does the source give for `CCCCCCCCCOc1ccc(NC(=O)O/N=C/c2ccc(F)c(F)c2)cc1` [Example 49, 3,4-Difluorobenzaldehyde, O-[[(4-nonyloxyphenyl)amino]carbonyl]oxime] here?
Its IC50 is under 10 nM.

Which IC50 does the source give for `CCCCOc1ccc(NC(=O)O/N=C/c2ccccc2)cc1` [Example 39, Benzaldehyde, O-[[(4-butoxyphenyl)amino]carbonyl]oxime] here?
The IC50 was under 10 nM.

How did the IC50 turn out when `O=C(Nc1ccc(Oc2ccccn2)cc1)O/N=C/c1ccccc1` [Example 149, Benzaldehyde, O-[[[4-[(2-pyridinyl)oxy]phenyl]amino]carbonyl]oxime] was run?
The IC50 was 10 to 100 nM.

For `CCCCCCCCCCOc1ccc(NC(=O)Oc2ccccc2F)cc1` [Example 102, 4-Decyloxyphenylcarbamic acid, 2-fluorophenyl ester], which IC50 is on record?
Its IC50 is under 10 nM.

Which IC50 does the source give for `O=C(Nc1ccc(Oc2ccccn2)cc1)O/N=C/c1ccc(F)cc1` [Example 148, 4-Fluorobenzaldehyde, O-[[[4-[(2-pyridinyl)oxy]phenyl]amino]carbonyl]oxime] here?
The IC50 was 10 to 100 nM.

How did the IC50 turn out when `CCCCCCCCCCCOc1ccc(NC(=O)O/N=C/c2ccc(F)cc2)cc1` [Example 38, 4-Fluorobenzaldehyde, O-[[(4-undecyloxyphenyl)amino]carbonyl]oxime] was run?
Its IC50 is under 10 nM.

With `CCCCCCCCCCCCOc1ccc(NC(=O)ON=C(C)C)cc1` [Example 40, 2-Propanone, O-[[(4-dodecyloxyphenyl)amino]carbonyl]oxime] as the compound, how does the IC50 read?
The IC50 was under 10 nM.

With `O=C(Nc1ccc2oc3ccccc3c2c1)O/N=C/c1cccnc1` [Example 152, 3-Pyridinecarboxaldehyde, O-[[(2-dibenzofuranyl)amino]carbonyl]oxime] as the compound, how does the IC50 read?
Its IC50 is 101 to 500 nM.

How did the IC50 turn out when `CCCCOc1ccc(C(CC)NC(=O)Oc2cccc3ccccc23)cc1` (stereo not drawn) [Example 127, [1-(4-Butoxy-phenyl)-propyl]-carbamic acid naphthalen-1-yl ester] was run?
Its IC50 is 101 to 500 nM.

Which IC50 does the source give for `O=C(Nc1ccccc1Oc1ccccc1)O/N=C/c1cccnc1` [Example 92, 3-Pyridinecarboxaldehyde, O-[[(2-phenoxyphenyl)amino]carbonyl]oxime] here?
The IC50 was over 500 nM.

How did the IC50 turn out when `CCCCCCOc1ccc(NC(=O)Oc2ccccc2)cc1` [Example 93, 4-Hexyloxyphenylcarbamic acid, phenyl ester] was run?
Its IC50 is 10 to 100 nM.

For `CCCCOc1ccc(NC(=O)ON=C(C)C)cc1OC` [Example 18, 2-Propanone, O-[[(4-butoxy-3-methoxyphenyl)amino]carbonyl]oxime], which IC50 is on record?
The IC50 was over 500 nM.

Which IC50 does the source give for `CCCCOc1ccc(CNC(=O)Oc2cccc(Cl)c2)cc1` [Example 122, 4-(Butoxyphenylmethyl)carbamic acid, 3-chlorophenyl ester] here?
The IC50 was 10 to 100 nM.

With `CCCCCCCOc1ccc(NC(=O)ON=C(C)C)cc1` [Example 26, 2-Propanone, O-[[(4-heptyloxyphenyl)amino]carbonyl]oxime] as the compound, how does the IC50 read?
Its IC50 is under 10 nM.

With `CCCCOc1ccc(CNC(=O)ON=C(C)C)cc1` [Example 61, 2-Propanone, O-[[(4-butoxyphenylmethyl)amino]carbonyl]oxime] as the compound, how does the IC50 read?
The IC50 was over 500 nM.

With `CCCCCCCCCCCOc1ccc(NC(=O)O/N=C/c2cccnc2)cc1` [Example 3, 3-Pyridinecarboxaldehyde, O-[[[4-(undecyloxy)phenyl]amino]carbonyl]oxime] as the compound, how does the IC50 read?
The IC50 was under 10 nM.

With `CCCCCCCCCCCCOc1ccc(NC(=O)O/N=C/c2ccc(F)cc2)cc1` [Example 42, 4-Fluorobenzaldehyde, O-[[(4-dodecyloxyphenyl)amino]carbonyl]oxime] as the compound, how does the IC50 read?
The IC50 was under 10 nM.

`O=C(Nc1ccc(OCCc2ccccc2)cc1)O/N=C/c1cccnc1` [Example 79, 3-Pyridinecarboxaldehyde, O-[[[4-(2-phenylethoxy)phenyl]amino]carbonyl]oxime] was tested. Which IC50 did it give?
Its IC50 is under 10 nM.

With `CCCCOc1ccc(CNC(=O)O/N=C/c2cccnc2)cc1` [Example 64, 3-Pyridinecarboxaldehyde, O-[[(4-butoxyphenylmethyl)amino]carbonyl]oxime] as the compound, how does the IC50 read?
The IC50 was 10 to 100 nM.

With `O=C(Nc1cccc(Oc2ccccc2)c1)O/N=C/c1ccc(F)cc1` [Example 88, 4-Fluorobenzaldehyde, O-[[(3-phenoxyphenyl)amino]carbonyl]oxime] as the compound, how does the IC50 read?
The IC50 was under 10 nM.

For `CCOc1ccc(NC(=O)ON=C(C)C)cc1` [Example 6, 2-Propanone, O-[[(4-ethoxyphenyl)amino]carbonyl]oxime], which IC50 is on record?
Its IC50 is 101 to 500 nM.

`CCCCOc1ccc(C(CC)NC(=O)Oc2ccc(F)cc2)cc1` (stereo not drawn) [Example 132, [1-(4-Butoxy-phenyl)-propyl]-carbamic acid 4-fluoro-phenyl ester] was tested. Which IC50 did it give?
The IC50 was 10 to 100 nM.

`CCCCOc1ccc(CNC(=O)Oc2ccc(OC)cc2)cc1` [Example 113, 4-(Butoxyphenylmethyl)carbamic acid, 4-methoxyphenyl ester] was tested. Which IC50 did it give?
Its IC50 is under 10 nM.

Which IC50 does the source give for `CCCCCCCCOc1ccc(NC(=O)Oc2ccccc2F)cc1` [Example 99, 4-Octyloxyphenylcarbamic acid, 2-fluorophenyl ester] here?
Its IC50 is 10 to 100 nM.

For `O=C(Nc1c[nH]c2ccccc12)O/N=C/c1ccccc1` [Example 145, Benzaldehyde, O-[[(1H-indol-3-yl)amino]carbonyl]oxime], which IC50 is on record?
The IC50 was over 500 nM.

`CCCCOc1ccc(C(CC)NC(=O)Oc2ccc3ccccc3c2)cc1` (stereo not drawn) [Example 128, [1-(4-Butoxy-phenyl)-propyl]-carbamic acid naphthalen-2-yl ester] was tested. Which IC50 did it give?
The IC50 was 10 to 100 nM.

Which IC50 does the source give for `CCCCOc1ccc(C(CC)NC(=O)Oc2ccccc2)cc1` (stereo not drawn) [Example 134, [1-(4-Butoxy-phenyl)-propyl]-carbamic acid phenyl ester] here?
Its IC50 is 10 to 100 nM.

With `O=C(Nc1ccc(OCCc2ccccc2)cc1)O/N=C/c1ccccc1` [Example 85, Benzaldehyde, O-[[[4-(2-phenylethoxy)phenyl]amino]carbonyl]oxime] as the compound, how does the IC50 read?
The IC50 was under 10 nM.

For `CCCCOc1ccc(NC(=O)O/N=C/c2ccc([N+](=O)[O-])cc2)cc1` [Example 59, 4-Nitrobenzaldehyde, O-[[(4-butoxyphenyl)amino]carbonyl]oxime], which IC50 is on record?
The IC50 was under 10 nM.

With `O=C(Nc1ccc(Oc2cccnc2)cc1)O/N=C/c1ccccc1` [Example 151, Benzaldehyde, O-[[[4-[(3-pyridinyl)oxy]phenyl]amino]carbonyl]oxime] as the compound, how does the IC50 read?
Its IC50 is under 10 nM.

`O=C(Nc1ccc(Oc2cccnc2)cc1)O/N=C/c1ccc(F)cc1` [Example 150, 4-Fluorobenzaldehyde, O-[[[4-[(3-pyridinyl)oxy]phenyl]amino]carbonyl]oxime] was tested. Which IC50 did it give?
Its IC50 is under 10 nM.

`CCCCCCCOc1ccc(NC(=O)O/N=C/c2cccnc2)cc1` [Example 1, 3-Pyridinecarboxaldehyde, O-[[[4-(Heptyloxy)phenyl]amino]carbonyl]oxime] was tested. Which IC50 did it give?
Its IC50 is under 10 nM.

How did the IC50 turn out when `CCCCCCCCCOc1ccc(NC(=O)O/N=C/c2ccc(C(F)(F)F)cc2)cc1` [Example 53, 4-(Trifluoromethyl)benzaldehyde, O-[[(4-nonyloxyphenyl)amino]carbonyl]oxime] was run?
The IC50 was under 10 nM.

For `CCCCOc1ccc(NC(=O)ON=C(C)C)cc1` [Example 60, 2-Propanone, O-[[(4-butoxyphenyl)amino]carbonyl]oxime], which IC50 is on record?
The IC50 was 10 to 100 nM.

Which IC50 does the source give for `CCCCCCCCCOc1ccc(NC(=O)O/N=C/c2ccc(F)cc2)cc1` [Example 48, 4-Fluorobenzaldehyde, O-[[(4-nonyloxyphenyl)amino]carbonyl]oxime] here?
The IC50 was under 10 nM.

With `CCCCCCCOc1ccc(NC(=O)O/N=C/c2ccc(F)cc2)cc1` [Example 28, 4-Fluorobenzaldehyde, O-[[(4-heptyloxyphenyl)amino]carbonyl]oxime] as the compound, how does the IC50 read?
Its IC50 is under 10 nM.
